Data on five molecules can be found in ChEMBL document CHEMBL1201862, “PubChem BioAssay data set” (2004).

Activity calls are given as the source filed them. Bounds are passed on as bounds.

The target in experiment [1] is Protein disulfide-isomerase (Homo sapiens, UniProt P07237). Kind of experiment: inhibition of PDI-driven insulin aggregation – biochemical, turbidity, absorbance, cherry-picked samples, dose response (AID 602350). The format is functional.
Experiment [2] can be described thus: NIH-3T3 fibroblast cytotoxicity, dose response, cytotoxicity control, cell-based, fluorescence, Alamar Blue, secondary assay (AID 2327).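 Also: NIH-3T3 mouse fibroblasts cultured with fluconazole at 8 µg/mL.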 Type of experiment: functional.
Experiment [3] is described as follows: fluconazole-exposed Candida albicans growth modulators – fluorescence, retest, confirmation (AID 2467). Type of experiment: functional, cell-based.
Experiment [4] can be described thus: Trypanosoma cruzi growth suppression in host cells – NIH3T3 host cells, beta-gal luminescence, confirmation (AID 2044).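 Also: intracellular parasites grown in NIH/3T3 mouse fibroblasts as host cells; luminescent beta-galactosidase reporter signal from transgenic T. cruzi replicating inside host cells; inhibitors lower the luminescence signal.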 Type of experiment: functional, cell-based.
The nature of experiment [5]: NIH3T3 cell viability loss – ATP luminescence, mouse fibroblasts, counter-screen, dose response (AID 2010).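 Also: cells exposed to compound for about 90 hours before reading.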 Type of experiment: functional, cell-based. In general terms: Counterscreens check selectivity or assay interference.
Another experiment concerns INS1. The experiment in a line: INS-1E survival protection against cytokine death – cell-based, luminescence, retest, dose response (AID 449756).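 Also: cell death triggered by IL-1 beta plus TNF-alpha plus IFN-gamma mixture; protective hits raise ATP signal compared with cytokine alone wells.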 The format is functional. To be noted: Rattus norvegicus.
For experiment [6], the target named is T1, High affinity choline transporter 1 (Homo sapiens, UniProt Q9GZV3).
T1 sequence (Q9GZV3 whole entry): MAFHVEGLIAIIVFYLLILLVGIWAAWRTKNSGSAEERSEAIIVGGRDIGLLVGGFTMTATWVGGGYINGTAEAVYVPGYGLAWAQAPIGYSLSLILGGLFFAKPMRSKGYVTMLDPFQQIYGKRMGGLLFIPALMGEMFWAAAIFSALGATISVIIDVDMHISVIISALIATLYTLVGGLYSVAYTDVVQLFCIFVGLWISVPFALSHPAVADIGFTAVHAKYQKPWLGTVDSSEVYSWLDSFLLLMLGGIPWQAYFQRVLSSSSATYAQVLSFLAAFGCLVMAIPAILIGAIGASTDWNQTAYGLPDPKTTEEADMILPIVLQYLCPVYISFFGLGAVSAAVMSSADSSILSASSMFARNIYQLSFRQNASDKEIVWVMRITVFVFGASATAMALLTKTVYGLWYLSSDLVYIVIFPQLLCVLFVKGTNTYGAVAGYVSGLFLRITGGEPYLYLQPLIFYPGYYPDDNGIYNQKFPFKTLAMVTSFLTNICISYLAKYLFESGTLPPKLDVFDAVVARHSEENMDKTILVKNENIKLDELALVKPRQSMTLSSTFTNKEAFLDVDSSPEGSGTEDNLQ
The experiment in a line: human choline transporter potentiators, potency – cell-based, 10-point CRC, membrane potential dye, dose response (AID 602376). Type of experiment: functional.

A further experiment has as its system CHO-K1. The experiment in a line: Counterscreen for antagonists of the orexin 1 receptor (OX1R; HCRTR1): Homogeneous time resolved fluorescence (HTRF)-based cell-based dose response assay to identify antagonists of the parental CHO-K1 cell line. [Related pubchem assays (depositor defined):AID434989, AID435008, AID463079, AID485270, AID492963, AID492964, AID492965, AID493232, AID504699, AID504701]. The format is functional. To be noted: Cricetulus griseus.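 Also: potency for inhibition of ATP-stimulated IP1 production as antagonists.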

Experiment [7] can be described thus: Counterscreen for antagonists of the orexin 1 receptor (OX1R; HCRTR1): Fluorescence-based cell-based high throughput dose response assay to identify antagonists of the parental CHO cell line. [Related pubchem assays (depositor defined):AID434989, AID435008, AID463079, AID485270, AID492963, AID492964, AID492965, AID493232, AID504699, AID504701]. The format is functional.

The target in experiment [8] is T2, Orexin/Hypocretin receptor type 1 (Homo sapiens, UniProt O43613). Kind of experiment: Homogeneous Time Resolved Fluorescence (HTRF)-based cell-based high throughput dose response assay for antagonists of the orexin 1 receptor (OX1R; HCRTR1). [Related pubchem assays (depositor defined):AID434989, AID435008, AID463079, AID485270, AID492963, AID492964, AID492965, AID493232, AID504717, AID504718]. The format is functional. For orientation: TR-FRET usually uses a lanthanide donor and a delayed reading to cut background.

Experiment [9] concerns the target T2, Orexin/Hypocretin receptor type 1. Kind of experiment: Fluorescence-based cell-based high throughput dose response assay for antagonists of the orexin 1 receptor (OX1R; HCRTR1). [Related pubchem assays (depositor defined):AID434989, AID435008, AID463079, AID485270, AID492963, AID492964, AID492965, AID493232, AID504717, AID504718]. The format is functional.

In experiment [10] the target is T3, Orexin receptor type 2 (Homo sapiens, UniProt O43614). Kind of experiment: Counterscreen assay for antagonists of the orexin 1 receptor (OX1R; HCRTR1): Fluorescence-based cell-based dose response assay for antagonists of the orexin 2 receptor (OX2R; HCRTR2), run by assay provider. The format is functional.
Experiment [11] concerns the target T4, Corticotropin-releasing factor receptor 2/Corticotropin-releasing factor-binding protein (Homo sapiens, UniProt P24387+Q13324).
T4 sequence (Q13324 whole entry): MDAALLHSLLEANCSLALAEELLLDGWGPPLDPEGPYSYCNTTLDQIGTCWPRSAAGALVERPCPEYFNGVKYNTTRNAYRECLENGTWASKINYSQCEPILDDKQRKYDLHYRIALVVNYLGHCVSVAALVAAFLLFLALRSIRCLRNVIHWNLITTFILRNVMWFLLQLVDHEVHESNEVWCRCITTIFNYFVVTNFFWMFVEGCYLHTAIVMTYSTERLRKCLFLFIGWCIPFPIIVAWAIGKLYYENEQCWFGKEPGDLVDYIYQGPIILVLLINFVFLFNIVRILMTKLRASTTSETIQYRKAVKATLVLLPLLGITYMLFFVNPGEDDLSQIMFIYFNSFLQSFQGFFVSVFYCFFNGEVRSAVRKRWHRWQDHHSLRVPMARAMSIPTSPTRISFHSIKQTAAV
T4 sequence (P24387 whole entry): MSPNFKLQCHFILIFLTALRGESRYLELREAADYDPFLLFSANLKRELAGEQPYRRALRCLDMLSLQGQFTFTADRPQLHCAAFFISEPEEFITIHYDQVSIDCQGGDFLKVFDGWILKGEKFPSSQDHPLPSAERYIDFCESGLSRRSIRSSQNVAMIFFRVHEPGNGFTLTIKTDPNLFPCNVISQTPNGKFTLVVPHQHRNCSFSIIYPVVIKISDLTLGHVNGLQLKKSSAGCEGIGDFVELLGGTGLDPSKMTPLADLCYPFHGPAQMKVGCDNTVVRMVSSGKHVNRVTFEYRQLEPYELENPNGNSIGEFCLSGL
The experiment in a line: activators of CRF receptor 2 with binding protein – uHTS hits, confirmation (AID 602473). The format is functional. To be noted: read-out: EC50_Mean.

The target of experiment [12] is T3, Orexin receptor type 2. Kind of experiment: Counterscreen assay for antagonists of the orexin 1 receptor (OX1R; HCRTR1): Homogeneous Time Resolved Fluorescence (HTRF)-based cell-based dose response assay for antagonists of the orexin 2 receptor (OX2R; HCRTR2), run by assay provider. The format is functional.
Experiment [13] in a line: viability loss in Vero cells – cell-based, purified and synthesized samples, set 8, cytotoxicity control for M. tuberculosis inhibitor project (AID 602431). The format is functional. To be noted: Mycobacterium tuberculosis.
Experiment [14] is described as follows: HepG2 cell cytotoxicity, cytotoxicity control, set 6 (AID 602432). The format is functional. To be noted: Mycobacterium tuberculosis.
The nature of experiment [15]: THP-1 cell cytotoxicity, cytotoxicity control, set 6 (AID 602433). To be noted: Mycobacterium tuberculosis. The format is functional.
A short description of experiment [16]: viability of uninfected HEp-2 cells – cell-based, HTS, cytotoxicity control for RSV inhibitor project, dose response (AID 2410). Type of experiment: functional. To be noted: human respiratory syncytial virus.
In experiment [17] the target is T5, V-type proton ATPase subunit c' (Saccharomyces cerevisiae S288c, UniProt P32842). Kind of experiment: Dose Response with BCECF Assay for V-ATPase inhibitors that increase vacuolar pH, Powder Set 1. The format is functional. To be noted: read-out: EC50_MICROM.
The target of experiment [18] is T5, V-type proton ATPase subunit c'. The experiment in a line: Dose Response of Small Molecules that Regulate V-ATPase Proton Transport in Yeast using pHLuorin, Powder Set1. The format is functional. To be noted: read-out: EC50_MICROM.

T2 sequence (O43613 whole entry): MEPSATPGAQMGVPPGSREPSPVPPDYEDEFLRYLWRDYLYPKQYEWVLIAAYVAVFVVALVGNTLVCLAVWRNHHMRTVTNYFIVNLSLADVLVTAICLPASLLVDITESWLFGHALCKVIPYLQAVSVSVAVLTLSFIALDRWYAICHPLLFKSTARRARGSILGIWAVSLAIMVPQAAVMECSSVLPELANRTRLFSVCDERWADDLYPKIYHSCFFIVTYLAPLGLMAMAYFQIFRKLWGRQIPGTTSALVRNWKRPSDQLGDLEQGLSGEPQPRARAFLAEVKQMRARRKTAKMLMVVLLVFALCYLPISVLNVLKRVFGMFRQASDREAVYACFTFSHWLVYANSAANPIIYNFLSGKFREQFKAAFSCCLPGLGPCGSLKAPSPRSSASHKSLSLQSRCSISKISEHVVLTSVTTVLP
T3 sequence (O43614 whole entry): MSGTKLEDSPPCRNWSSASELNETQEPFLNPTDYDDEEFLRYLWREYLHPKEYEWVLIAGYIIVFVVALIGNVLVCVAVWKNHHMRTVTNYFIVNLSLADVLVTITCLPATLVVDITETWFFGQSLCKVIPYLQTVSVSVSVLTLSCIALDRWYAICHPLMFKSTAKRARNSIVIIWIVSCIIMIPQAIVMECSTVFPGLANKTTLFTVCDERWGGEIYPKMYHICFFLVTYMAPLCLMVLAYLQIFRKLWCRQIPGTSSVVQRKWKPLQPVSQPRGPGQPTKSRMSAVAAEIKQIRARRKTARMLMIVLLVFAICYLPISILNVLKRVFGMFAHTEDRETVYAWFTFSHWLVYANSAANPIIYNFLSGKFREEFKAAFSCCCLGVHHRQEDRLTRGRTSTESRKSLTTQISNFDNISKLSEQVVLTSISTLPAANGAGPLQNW
T5 sequence (P32842 whole entry): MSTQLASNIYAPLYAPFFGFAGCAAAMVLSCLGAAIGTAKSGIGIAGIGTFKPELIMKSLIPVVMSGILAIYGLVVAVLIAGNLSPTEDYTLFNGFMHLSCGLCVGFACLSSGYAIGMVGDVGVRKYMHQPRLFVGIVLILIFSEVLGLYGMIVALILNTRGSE
Sequence of Protein disulfide-isomerase (P07237 whole entry): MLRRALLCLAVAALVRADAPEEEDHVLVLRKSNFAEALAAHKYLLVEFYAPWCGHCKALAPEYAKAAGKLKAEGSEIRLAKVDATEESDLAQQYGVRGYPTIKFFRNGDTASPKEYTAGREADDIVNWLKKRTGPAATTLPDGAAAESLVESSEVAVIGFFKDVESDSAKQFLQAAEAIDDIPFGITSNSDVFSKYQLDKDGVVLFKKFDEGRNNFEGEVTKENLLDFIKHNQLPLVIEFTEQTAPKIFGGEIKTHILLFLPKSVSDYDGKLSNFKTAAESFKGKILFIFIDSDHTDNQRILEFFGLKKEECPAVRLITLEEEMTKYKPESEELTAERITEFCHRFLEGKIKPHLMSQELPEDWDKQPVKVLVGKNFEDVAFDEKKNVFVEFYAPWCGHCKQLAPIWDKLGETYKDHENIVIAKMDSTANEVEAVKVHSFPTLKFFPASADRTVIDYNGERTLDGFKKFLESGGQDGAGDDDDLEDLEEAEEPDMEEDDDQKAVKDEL

What is called AC50 is the midpoint of the concentration-response curve, whichever way the signal moves. Take `Cc1c(O)ccc2c(CN3CCN(CCO)CC3)cc(=O)oc12`: in [1], the AC50 was 8.66 µM (active).
As for `COc1ccc(C)cc1Nc1n[n+](-c2ccccc2)c(-c2ccc(OC)c(OC)c2OC)s1`, the EC50 is > 160 µM (inactive) in [2]; 2.71 µM (active) in [3]; 0.215 µM (active) in experiment [4]; > 30 µM (not active) in experiment [5]; 12.1 µM (active) in experiment [6]. In addition, in the experiment with INS1, the AC50 is 11.2 µM (active).
One may read the IC50 as the concentration at which inhibition is half-maximal. In the case of `Cc1cc(-c2ccc(N3CCOCC3)cc2)nc2ccccc12`, the IC50 in the experiment with CHO-K1 is > 66.2 µM (inactive); in experiment [7], > 49.8 µM (inactive); in [8], 2.37 µM (active); in experiment [9] it was 5.3 µM (active); on Orexin receptor type 2 [10], > 88.8 µM (inactive); at Orexin receptor type 2 [12] it was 19.3 µM (inactive). Moreover, the EC50 in experiment [11] is > 53 µM (inactive).
Broadly, the CC50 is the concentration giving 50% cytotoxicity. Take `O=C(NCc1ccc(C(=O)N2CCC(c3ccccc3)CC2)cc1)Nc1ccc(Cl)cc1`: the figures for the 50% cytotoxic concentration (CC50) in [13], in [14] and in experiment [15] were 40.1 µM (active), 35 µM (active) and 24.7 µM (active), respectively.
Take `O=C(c1ccc([N+](=O)[O-])o1)N1CCN(c2nc3c(Cl)cccc3s2)CC1`: in experiment [16], the cytotoxic concentration (CC50) was > 50 µM (active). In addition, the EC50 in experiment [4] was 0.254 µM (active); in experiment [5] it was 20.6 µM (active); in [17], 0.86 µM (active); in experiment [18], 3.53 µM (active).
